Compound in the experiment: CCc1cnn2c(NCc3ccc[n+]([O-])c3)cc(N3CCCC[C@H]3CCO)nc12 [Dinaciclib] + Cc1nc(NC(=O)N2CCC[C@H]2C(N)=O)sc1-c1ccnc(C(C)(C)C(F)(F)F)c1 [Alpelisib] (partner 2 µM)
The experiment is described as follows: relative viability (nuclei count vs DMSO), 5 days (fraction); higher = more cells survive. An outline of the steps:
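Nuclei were stained with Hoechst during a one-step fixation (final 0.05% Triton X-100, 1% formaldehyde, 1 ug/ml Hoechst) carried out 5 days after dosing, then counted on 4× images. The cells, lung cancer lines in 1536-well plates, had been dosed by pin tool the day after seeding with one drug alone or a fixed anchor-drug dose plus five library-drug doses (not always all listed) in √10 steps. Relative viability is the nuclei count in treated wells divided by that in vehicle wells, and each value is the median of duplicate plates.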

As to NCI-H838, the relative viability by setting is: (first compound 0.009487 µM) 0.916; (first compound 0.03 µM) 0.149; (first compound 0.09487 µM) 0.11; (first compound 0.3 µM) 0.123.

Consider NCI-H3122, for which the relative viability runs as follows: (first compound 0.009487 µM) 0.489; (first compound 0.03 µM) 0.157; (first compound 0.09487 µM) 0.119; (first compound 0.3 µM) 0.15.

For SK-MES-1, the relative viability is, setting by setting: (first compound 0.009487 µM) 0.757; (first compound 0.03 µM) 0.618; (first compound 0.09487 µM) 0.119; (first compound 0.3 µM) 0.117.

For the cell line NCI-H1944, the relative viability runs as follows: (first compound 0.009487 µM) 0.904; (first compound 0.03 µM) 0.221; (first compound 0.09487 µM) 0.152; (first compound 0.3 µM) 0.166.

For LK-2, the relative viability reads like this: (first compound 0.009487 µM) 0.849; (first compound 0.03 µM) 0.274; (first compound 0.09487 µM) 0.232; (first compound 0.3 µM) 0.199.

For PC-3 [JPC-3], the relative viability came out at 0.99 (first compound 0.009487 µM), 0.899 (first compound 0.03 µM), 0.362 (first compound 0.09487 µM) and 0.21 (first compound 0.3 µM).

On to COR-L23, for which the relative viability is, setting by setting: (first compound 0.009487 µM) 0.637; (first compound 0.03 µM) 0.0835; (first compound 0.09487 µM) 0.0694; (first compound 0.3 µM) 0.0603.

Take NCI-H1355: the relative viability is 0.933 (first compound 0.009487 µM), 0.233 (first compound 0.03 µM), 0.141 (first compound 0.09487 µM) and 0.159 (first compound 0.3 µM).

For NCI-H460, the relative viability (first compound 0.009487 µM) stood at 0.383, the relative viability (first compound 0.03 µM) is 0.0074, the relative viability (first compound 0.09487 µM) was found to be 0.0122 and the relative viability (first compound 0.3 µM) is 0.0084.

Turning to NCI-H1993, the relative viability came to 0.671 (first compound 0.009487 µM), 0.683 (first compound 0.03 µM) and 0.642 (first compound 0.3 µM).

With HCC-15, the relative viability (first compound 0.009487 µM) is 0.863, the relative viability (first compound 0.03 µM) was 0.169, the relative viability (first compound 0.09487 µM) turned out to be 0.0978 and the relative viability (first compound 0.3 µM) came out at 0.0964.

For NCI-H23, the relative viability by setting is: (first compound 0.009487 µM) 0.578; (first compound 0.03 µM) 0.15; (first compound 0.09487 µM) 0.119; (first compound 0.3 µM) 0.104.

Take NCI-H1395: the relative viability (first compound 0.009487 µM) turned out to be 0.903, the relative viability (first compound 0.03 µM) was determined as 0.304, the relative viability (first compound 0.09487 µM) was 0.312 and the relative viability (first compound 0.3 µM) is 0.303.

As to NCI-H1666, the relative viability reads like this: (first compound 0.009487 µM) 0.716; (first compound 0.03 µM) 0.165; (first compound 0.09487 µM) 0.228; (first compound 0.3 µM) 0.243.

Consider NCI-H2405, for which the relative viability (first compound 0.009487 µM) came to 0.876, the relative viability (first compound 0.03 µM) came out at 0.22, the relative viability (first compound 0.09487 µM) was 0.208 and the relative viability (first compound 0.3 µM) amounted to 0.184.

Take NCI-H2009: the relative viability turned out to be 0.923 (first compound 0.009487 µM), 0.151 (first compound 0.03 µM), 0.102 (first compound 0.09487 µM) and 0.0919 (first compound 0.3 µM).

HCC-78: the relative viability reads like this: (first compound 0.009487 µM) 0.298; (first compound 0.03 µM) 0.202; (first compound 0.09487 µM) 0.115; (first compound 0.3 µM) 0.118.

On to NCI-H2170, for which the relative viability is, setting by setting: (first compound 0.009487 µM) 0.646; (first compound 0.03 µM) 0.166; (first compound 0.09487 µM) 0.162; (first compound 0.3 µM) 0.198.

For NCI-H1793, the relative viability is, setting by setting: (first compound 0.009487 µM) 0.468; (first compound 0.03 µM) 0.188; (first compound 0.09487 µM) 0.163; (first compound 0.3 µM) 0.15.

For the cell line HCC-366, the relative viability is, setting by setting: (first compound 0.009487 µM) 0.366; (first compound 0.03 µM) 0.0443; (first compound 0.09487 µM) 0.0165; (first compound 0.3 µM) 0.0153.

In the case of NCI-H1651, the relative viability (first compound 0.009487 µM) was found to be 0.865, the relative viability (first compound 0.03 µM) was determined as 0.613, the relative viability (first compound 0.09487 µM) turned out to be 0.108 and the relative viability (first compound 0.3 µM) is 0.0602.

For LC-2-ad, the relative viability by setting is: (first compound 0.009487 µM) 0.811; (first compound 0.03 µM) 0.0609; (first compound 0.09487 µM) 0.0619; (first compound 0.3 µM) 0.0681.

On to HCC-827, for which the relative viability (first compound 0.009487 µM) worked out at 0.879, the relative viability (first compound 0.03 µM) is 0.601, the relative viability (first compound 0.09487 µM) was 0.126 and the relative viability (first compound 0.3 µM) came to 0.123.

Regarding SK-LU-1, the relative viability by setting is: (first compound 0.009487 µM) 0.637; (first compound 0.03 µM) 0.197; (first compound 0.09487 µM) 0.18; (first compound 0.3 µM) 0.194.

Turning to ABC-1, the relative viability runs as follows: (first compound 0.009487 µM) 0.726; (first compound 0.03 µM) 0.342; (first compound 0.09487 µM) 0.194; (first compound 0.3 µM) 0.172.

With NCI-H1703, the relative viability came to 0.419 (first compound 0.009487 µM), 0.119 (first compound 0.03 µM), 0.0849 (first compound 0.09487 µM) and 0.115 (first compound 0.3 µM).

With COR-L 105, the relative viability came out at 0.575 (first compound 0.009487 µM), 0.35 (first compound 0.03 µM), 0.234 (first compound 0.09487 µM) and 0.187 (first compound 0.3 µM).

Regarding LOU-NH91, the relative viability came to 0.73 (first compound 0.009487 µM), 0.462 (first compound 0.03 µM), 0.253 (first compound 0.09487 µM) and 0.235 (first compound 0.3 µM).

On to NCI-H661, for which the relative viability reads like this: (first compound 0.009487 µM) 0.346; (first compound 0.03 µM) 0.147; (first compound 0.09487 µM) 0.176; (first compound 0.3 µM) 0.152.

For LU99A, the relative viability was determined as 0.37 (first compound 0.009487 µM), 0.133 (first compound 0.03 µM), 0.116 (first compound 0.09487 µM) and 0.0993 (first compound 0.3 µM).

Regarding SW 1573, the relative viability (first compound 0.009487 µM) turned out to be 0.659, the relative viability (first compound 0.03 µM) was found to be 0.432, the relative viability (first compound 0.09487 µM) was 0.0931 and the relative viability (first compound 0.3 µM) is 0.106.

As to HOP-62, the relative viability was found to be 0.828 (first compound 0.009487 µM), 0.27 (first compound 0.03 µM), 0.0713 (first compound 0.09487 µM) and 0.0692 (first compound 0.3 µM).

With UMC-11, the relative viability (first compound 0.009487 µM) was determined as 0.285, the relative viability (first compound 0.03 µM) worked out at 0.147, the relative viability (first compound 0.09487 µM) came out at 0.135 and the relative viability (first compound 0.3 µM) amounted to 0.158.

Take LCLC-103H: the relative viability reads like this: (first compound 0.009487 µM) 0.934; (first compound 0.03 µM) 0.844; (first compound 0.09487 µM) 0.248; (first compound 0.3 µM) 0.113.

On to NCI-H1734, for which the relative viability runs as follows: (first compound 0.009487 µM) 0.607; (first compound 0.03 µM) 0.271; (first compound 0.09487 µM) 0.127; (first compound 0.3 µM) 0.138.

The values are drawn from the supplement of paper PMC10307832.
